Results reported in patent US20230330254A1 (Regeneron Pharmaceuticals, Inc., priority 2022, published 2023).
Where “and” joins values, the source holds several entries; their conditions need not be identical. Equal entries are not always repeated. Where two headings read alike, the source gives them in different places. Where a SMILES comes first, the peptide text is derived from it. [ ]: non-standard residue; d: D form. The star is where a group is joined. Bip(2'-Et,4'-O(CH2)4N3) = CCc1cc(OCCCCN=[N+]=[N-])ccc1-c1ccc(C[C@H](N)C(=O)O)cc1; Malonyl(2,2-Me2,histaminyl) = CC(C)(C(=O)NCCc1cnc[nH]1)C(=O)*; Nva(5-(3,5-Me2Ph)) = Cc1cc(C)cc(CCC[C@H](N)C(=O)O)c1; Ala(1H-tetrazol-5-yl) = N[C@@H](Cc1nnn[nH]1)C(=O)O; αMePhe(2-F) = C[C@](N)(Cc1ccccc1F)C(=O)O

Legend:
[1] = target: T1, human GLP1R (Homo sapiens, UniProt P43220); test: CRE-Luc cAMP reporter assay, HEK293/CRE-Luc/hGLP1R (Example 24); format: cell-based; parameters: engineered to express full-length human GLP1R, cynomolgus GLP1R; expressed in transfected cells; host or cells: HEK293/CRE-Luc; conditions: HEK293, read-out: HEK293/CRE-Luc/hGLP1R Emax (% GLP-1)
T1 sequence (P43220 24-463): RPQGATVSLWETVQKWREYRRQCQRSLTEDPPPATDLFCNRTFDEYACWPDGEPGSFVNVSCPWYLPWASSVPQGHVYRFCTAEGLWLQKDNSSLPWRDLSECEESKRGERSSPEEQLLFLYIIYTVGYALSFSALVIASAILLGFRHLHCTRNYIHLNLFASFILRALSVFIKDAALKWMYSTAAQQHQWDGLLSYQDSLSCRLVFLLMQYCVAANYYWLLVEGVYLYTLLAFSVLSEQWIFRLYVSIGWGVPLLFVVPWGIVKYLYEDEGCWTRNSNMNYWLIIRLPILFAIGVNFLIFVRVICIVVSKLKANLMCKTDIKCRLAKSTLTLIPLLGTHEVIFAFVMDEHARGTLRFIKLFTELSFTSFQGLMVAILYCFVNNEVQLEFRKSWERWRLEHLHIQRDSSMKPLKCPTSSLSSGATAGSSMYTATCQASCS
Excerpt: To test the activity of GLP1R agonist payloads, GLP1R agonist linker-payloads (LPs), and anti-GLP1R antibody-tethered ligands (ATLs) of the invention, a cell-based cAMP responsive luciferase reporter assay was developed. To generate the assay cell line, the firefly luciferase gene was placed under the control of a cAMP response element (CRE) located upstream of a minimal promoter and transfected into HEK293 cells and referred to herein as HEK293/CRE-Luc cells. HEK293/CRE-Luc cells were then engineered to express full-length human GLP1R (HEK293/CRE-Luc/hGLP1R), cynomolgus GLP1R (HEK293/CRE-Luc/mfGLP1R), or mouse GLP1R (HEK293/CRE-Luc/mGLP1R).
Serial dilutions of free payload and linker payloads (LP) were performed in 100% DMSO (ATCC, #4-X-5), followed by 1:100 dilution in assay media. Test articles were added to cells (1:5 dilution) with the last well in each serial dilution series serving as a blank control containing only assay media for antibodies and ATLs or assay media with 0.2% DMSO for payloads and LPs. After a 5-hour incubation at 37° C., luciferase activity was determined by addition of ONE-Glo reagent (Promega, #E6130) followed by measurement of relative light units (RLUs) on an EnVision Plate Reader (Perkin Elmer).
(§1) EC50 values for luminescence assays were determined using a four-parameter logistic equation over a 12-point dose response curve (GraphPad Prism).

[2] = target: T1, human GLP1R; test: Luciferase reporter assay, HEK293/CRE-Luc/hGLP1R (Example 17); format: cell-based; parameters: engineered to express full-length human GLP1R, cynomolgus GLP1R; expressed in transfected cells; host or cells: HEK293/CRE-Luc; conditions: HEK293/CRE-Luc/hGLP1R
Outline: (§2)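 HEK293 cells carrying a CRE-driven firefly luciferase reporter were exposed to 3-fold serial dilutions of payloads or linker-payloads (12 points, 0.2% DMSO final) for 4–6 h, then luminescence was read. EC50 came from a four-parameter logistic fit; S/N is top RLU over untreated wells, and relative potency and S/N are referenced to M2361.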

[3] = test system: HEK293/CRE-Luc cells; test: Luciferase reporter assay, HEK293/CRE-Luc cells without GLP1R (Example 17); format: cell-based, human
Outline: as §2

[4] = target: T1, human GLP1R; test: b-arrestin 2 recruitment assay, PathHunter CHO/b-arrestin 2/hGLP1R cells; format: cell-based; conditions: read-out: CHO/b-arrestin 2/hGLP1R Emax (% GLP-1)
Procedure: The b-arrestin 2 recruitment assay was performed following manufacter's instructions (Eurofins DiscoverX, #93-0300E2CP0M), with minor modifications. […] Serial dilutions of free payload and LP were performed in 100% DMSO, followed by 1:100 dilution in assay media. Test articles were added to cells (1:5 dilution) with the last well in each serial dilution series serving as a blank control containing only assay media for antibodies and ATLs or assay media with 0.2% DMSO for payload and LP. After a 90-minute incubation at 37° C., PathHunter Detection Reagent (Eurofins DiscoverX, #93-0300E2CP0M) was added to the wells followed by a 1-hour incubation at room temperature. RLUs were measured on EnVision Plate Reader (Perkin Elmer).
as §1

[5] = target: T1, human GLP1R; test: Human GLP1R cAMP accumulation assay; format: cell-based; parameters: HEK293 cells over-expressing full length human GLP-1R were utilized; expressed in transfected cells; host or cells: HEK293 (HEK293/hGLP1R); conditions: HEK293/hGLP1R cells; Table 4; read-out: cAMP EC50
Outline: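 cAMP accumulation measured after 30 min at 23° C, with 500 μM IBMX in HEPES-buffered HBSS plus 0.1% BSA, in HEK293 cells expressing full-length hGLP-1R. Levels read by D2-cAMP/antibody immunoassay via standard curve, scaled between low and high controls. EC50 fitted four-parameter over a 10-point curve.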

[6] = target: hERG potassium channels (Homo sapiens, UniProt Q12809); test: cell-based
hERG potassium channels, sequence (Q12809 whole entry): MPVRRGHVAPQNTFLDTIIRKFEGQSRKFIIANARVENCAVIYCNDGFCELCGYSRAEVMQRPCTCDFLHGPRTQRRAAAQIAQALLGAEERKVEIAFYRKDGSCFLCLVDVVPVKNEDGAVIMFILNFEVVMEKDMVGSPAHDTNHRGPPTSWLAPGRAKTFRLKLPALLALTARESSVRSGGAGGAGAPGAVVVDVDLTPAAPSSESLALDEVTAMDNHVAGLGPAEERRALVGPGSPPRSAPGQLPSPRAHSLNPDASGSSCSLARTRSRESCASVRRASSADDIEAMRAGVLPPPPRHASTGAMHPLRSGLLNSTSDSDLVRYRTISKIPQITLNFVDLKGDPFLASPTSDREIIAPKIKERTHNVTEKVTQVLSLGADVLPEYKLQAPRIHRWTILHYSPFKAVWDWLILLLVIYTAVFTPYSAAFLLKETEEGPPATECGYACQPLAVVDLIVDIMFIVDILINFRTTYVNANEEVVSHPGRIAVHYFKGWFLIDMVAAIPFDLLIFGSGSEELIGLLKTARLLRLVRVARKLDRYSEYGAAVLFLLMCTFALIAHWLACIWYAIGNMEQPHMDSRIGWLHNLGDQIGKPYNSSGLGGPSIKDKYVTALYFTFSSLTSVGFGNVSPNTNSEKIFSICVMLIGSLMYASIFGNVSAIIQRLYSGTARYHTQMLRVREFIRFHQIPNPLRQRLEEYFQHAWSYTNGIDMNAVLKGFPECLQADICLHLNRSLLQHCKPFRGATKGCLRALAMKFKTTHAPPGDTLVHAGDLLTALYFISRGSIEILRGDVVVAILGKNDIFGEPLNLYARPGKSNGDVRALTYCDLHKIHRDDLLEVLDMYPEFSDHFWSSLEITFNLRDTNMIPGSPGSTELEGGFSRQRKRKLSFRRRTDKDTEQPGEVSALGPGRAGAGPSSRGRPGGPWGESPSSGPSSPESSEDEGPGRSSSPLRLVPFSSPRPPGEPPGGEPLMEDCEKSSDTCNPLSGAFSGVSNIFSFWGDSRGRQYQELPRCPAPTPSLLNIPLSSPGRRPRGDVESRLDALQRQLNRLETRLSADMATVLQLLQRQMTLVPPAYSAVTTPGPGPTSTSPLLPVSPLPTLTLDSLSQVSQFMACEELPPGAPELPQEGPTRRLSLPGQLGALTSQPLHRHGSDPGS
Procedure: For the assay, CHO cells stably expressing hERG potassium channels were plated and cultured for at least 2 days in a humidified and air-controlled (5% CO2) incubator at 37° C. prior to use in electrophysiological experiments. Cells were then harvested using TrypLE and resuspended in physiological solution (10 mM HEPES, 80 mM NaCl, 4 mM KCl, 2 mM CaCl2, 1 mM MgCl2, 5 mM Glucose, 60 mM NM DG, pH 7.4). Test compounds were dissolved in water to obtain stock solutions for different test concentrations. […] One 40 μL addition of the vehicle was applied, followed by a 300s baseline recording period. […] Recordings were required to pass quality control over the duration of the recording or the well was abandoned, and the compound was retested, all automatically set by PatchControl. […] A minimum of 2 replicates per concentration were obtained. […] Curve-fitting and IC50 value calculations were performed by GraphPad Prism 5.0.

[7] = ATDCs and references (Table 27)
[8] = relative to M2361 of the same experiment
[9] = HEK293/CRE-Luc cells without hGLP1R, payloads and linker-payloads

SMILES | Emax [1] [%] | Relative Potency (% M2361 EC50) [2, 7] [%] | Relative Signal:Noise (% M2361) [2, 7] [%] | S/N [2, 7] | Relative Potency (% M2361 EC50) [2, 8] [%] | Relative Signal:Noise (% M2361) [2, 8] [%] | S/N ([3]; HEK293/CRE-Luc cells without hGLP1R, ATDCs and references (Table 27)) | EC50 ([3]; HEK293/CRE-Luc cells without hGLP1R, ATDCs and references (Table 27), read-out: EC50) [nM] | S/N [3, 9] | EC50 ([3]; Table 28, reporter cells without GLP1R, read-out: HEK293/CRE-Luc EC50) [nM] | EC50 ([3]; Table 29, reporter cells without GLP1R, read-out: HEK293/CRE-Luc EC50) [nM] | Emax [4] [%] | EC50 [5] [nM] | S/N ([2]; highest RLU / RLU of untreated wells) | EC50 ([2]; payloads and linker-payloads, experiments A-E, M2361 repeated in each, read-out: EC50) [nM] | EC50 ([3]; HEK293/CRE-Luc cells without hGLP1R, payloads and linker-payloads, read-out: EC50) [nM] | IC50 [6] [nM]
CCc1cc(OCCCCN=[N+]=[N-])ccc1-c1ccc(C[C@H](NC(=O)[C@H](CC(=O)O)NC(=O)[C@H](CO)NC(=O)[C@@H](NC(=O)[C@](C)(Cc2ccccc2F)NC(=O)[C@@H](NC(=O)CNC(=O)[C@H](Cc2nn[nH]n2)NC(=O)C(C)(C)C(=O)NCCc2cnc[nH]2)[C@@H](C)O)[C@@H](C)O)C(=O)N[C@@H](CCCc2cc(C)cc(C)c2)C(N)=O)cc1 [M2361] ({Malonyl(2,2-Me2,histaminyl)}-[Ala(1H-tetrazol-5-yl)]GT[αMePhe(2-F)]TSD[Bip(2'-Et,4'-O(CH2)4N3)][Nva(5-(3,5-Me2Ph))]-NH2) | 95.8 | 100.0 | 100.0 | 64.3 | 100.0 | 100.0 | 1.3 | > 20 | 1.5 and 1.3 | > 200 | > 30 | 107 | – | – | – | – | –
CCc1cc(OCCCCn2cc(COCCOCCOCCOCCNC(=O)COC3C#CCCCCC3)nn2)ccc1-c1ccc(C[C@H](NC(=O)[C@H](CC(=O)O)NC(=O)[C@H](CO)NC(=O)[C@@H](NC(=O)[C@](C)(Cc2ccccc2F)NC(=O)[C@@H](NC(=O)CNC(=O)[C@H](Cc2nn[nH]n2)NC(=O)C(C)(C)C(=O)NCCc2cnc[nH]2)[C@@H](C)O)[C@@H](C)O)C(=O)N[C@@H](CCCc2cc(C)cc(C)c2)C(N)=O)cc1 (some centres unmarked) [LP10, COT-PEG4-triazole-P8] | – | – | – | – | 13.6 | 78.7 | – | – | 1.1 | – | – | – | 0.982 | 51.7 | 0.0391 | > 200 | > 100000
